# Results: publication PMC6829466 (International Journal of Molecular Sciences, 2019)
# Read-outs that look alike come from different tables or passages of the source.
# Key:
# HIV = details: cited from earlier work
# [1] = Cytotoxicity, MTT assay in CEM-T4 cells; details: human
# Method: (§1) Evaluation of anti-HIV activity consisted of measurements of p24 antigen using the Genscreen ULTRA HIV Ag-Ab Kit. […] We included betulin and betulinic acid in our studies in order to broaden the structure-activity study. BVM, the first HIV-1 maturation inhibitor, was applied as a reference compound.
# For the determination of compounds cytotoxicity, CEM-T4 cells were obtained from the NIH AIDS Reagent Program (NIH, US) and were cultured in RPMI supplemented with 10% FCS (Biochrom) and antibiotics at 37 °C in 5% CO2 on 96-well culture plates. […] Cultures in a neat medium (RPMI, 10% FCS) were used as a control. Viability of cells was determined after 7 days using the MTT assay in which 10 μL of MTT solution (5 mg/mL) was added to each culture plate well, and cultures were incubated for 3 h at a temperature of 37 °C. After the centrifugation, the supernatant was removed, and DMSO was added for lysis of the cells and to dissolve crystals of formazan. Color intensity was measured with a plate reader at 560 nm. Cell viability was determined by the Equation (1):Viability (%) = (OD of samples enriched in test drugs/OD of control samples) × 100(1) where OD means optical density.
# Based on the calculations, a graph was created regarding the relationship between the concentration of the compound and the viability from which CC50 was established.
# HIV-1 [2] = experiment: microbe, parasite or virus in culture; details: for TI (selectivity index): HIV-infected CEM-T4 cell line
# Method: as §1
# CEM-T4 cells were preincubated (culture plates with 96 flat bottom wells) for 24 h under standard conditions (37 °C, 5% CO2) and in a standard medium (RPMI, FCS 10%) enriched with tested compounds in the concentration range from 0.02 µM to 10 µM. In each well, 20,000 cells were suspended in the solution of a tested compound (200 μL). For each concentration, cultures were run in triplicate. A wild-type HIV-1 was isolated from the HIV-positive patient in the Laboratory of Virology of the National Medicines Institute (Warsaw, Poland) and was used as a reference. A culture of CEM-T4 lines in a standard neat medium (RPMU, FCS 10%) was used to produce viruses. After 24 h of incubation in a medium enriched with a tested compound, cells were inoculated with a known amount of HIV, and after 7 days, HIV replication was evaluated through the measurement of secreted viral protein p24 carried out with the enzyme-linked immunosorbent assay (ELISA) technique. For each tested compound and for each concentration, the measurements of p24 antigen were done in triplicate using the Genscreen ULTRA HIV Ag-Ab Kit (Biorad, Warszawa, Poland) and following manufacturer’s instructions. The absorbance of the sample was determined as an OD measured at 650 nm. HIV replication capacity was calculated using the Equation (2):Virus replication (%) = (OD of drug-enriched samples/OD of control samples) × 100(2)
# The results were presented by a graph showing the ratio of HIV replication to the concentration of the tested preparation.
# HIV-1 [3] = system: HIV-1; set-up: method as in PMID 8176401; details: inhibiting HIV-1 replication; cited from earlier work
# [4] = Human immunodeficiency virus 1, CEM-T4, 168 h, wild-type HIV-1 in CEM-T4 cells, p24 antigen, 7 days, 50% inhibition of replication
# [5] = wild-type HIV-1 in CEM-T4 cells, p24 antigen, 7 days, 50% inhibition of replication
Compound,CC50 at 7 days [1] [µM],IC50 (HIV-1 [2]; [4]) [µM],TI (selectivity index) (HIV-1 [2]),other results
"3,28-di(dimethylglutaryl)betulin",–,–,–,EC50 (HIV): 0.00066 µM
"C=C(C)C1CCC2(C(=O)O)CCC3(C)C(CCC4C5(C)CCC(OC(=O)CC(C)(C)CC(=O)O)C(C)(C)C5CCC43C)C12 (stereo not shown) [3′,3′-dimethylglutarylbetulinic acid]",–,–,–,EC50 (HIV; literature reports): 0.0023 µM
C=C(COP(=O)(OCC)OCC)C1CCC2(C(=O)O)CCC3(C)C(CCC4C5(C)CCC(O)C(C)(C)C5CCC43C)C12 (stereo not shown) [Compound 9],18 ± 1.79,> 10,–,–
"CCOP(=O)(C=C(C)C1CCC2(C(=O)O)CCC3(C)C(CCC4C5(C)CCC(O)C(C)(C)C5CCC43C)C12)OCC (stereo not shown) [Compound 10, 29-Diethoxyphosphorylbetulinic acid]",80 ± 1.3,> 10,<8,–
"C=C(CP(=O)(OCC)OCC)C1CCC2(C(=O)O)CCC3(C)C(CCC4C5(C)CCC(O)C(C)(C)C5CCC43C)C12 (stereo not shown) [Compound 11, 30-Diethoxyphosphorylbetulinic Acid]",> 42,> 10,–,–
C=C(COP(=O)(OCC)OCC)C1CCC2(C(=O)O)CCC3(C)C(CCC4C5(C)CCC(OC(=O)CC(C)(C)C(=O)O)C(C)(C)C5CCC43C)C12 (stereo not shown) [Compound 12a],52 ± 1.07,< 2,52,IC50 (HIV-1 [2]; [5]): 1 ± 0.33 µM
C=C(COP(=O)(OCC)OCC)C1CCC2(C(=O)O)CCC3(C)C(CCC4C5(C)CCC(OC(=O)CC(C)(C)CC(=O)O)C(C)(C)C5CCC43C)C12 (stereo not shown) [Compound 12b],28 ± 1.64,0.6 ± 0.04,47,–
C=C(COP(=O)(OCC)OCC)C1CCC2(C(=O)O)CCC3(C)C(CCC4C5(C)CCC(OC(=O)CCC(C)(C)C(=O)O)C(C)(C)C5CCC43C)C12 (stereo not shown) [Compound 12c],64 ± 1.84,4 ± 1.65,16,–
CCOP(=O)(C=C(C)C1CCC2(C(=O)O)CCC3(C)C(CCC4C5(C)CCC(OC(=O)CC(C)(C)C(=O)O)C(C)(C)C5CCC43C)C12)OCC (stereo not shown) [Compound 13a],> 68,< 2,>35,IC50 (HIV-1 [2]; [5]): 2 ± 0.72 µM
CCOP(=O)(C=C(C)C1CCC2(C(=O)O)CCC3(C)C(CCC4C5(C)CCC(OC(=O)CC(C)(C)CC(=O)O)C(C)(C)C5CCC43C)C12)OCC (stereo not shown) [Compound 13b],> 68,8.8 ± 1.7,>8,–
CCOP(=O)(C=C(C)C1CCC2(C(=O)O)CCC3(C)C(CCC4C5(C)CCC(OC(=O)CCC(C)(C)C(=O)O)C(C)(C)C5CCC43C)C12)OCC (stereo not shown) [Compound 13c],> 68,> 10,–,–
C=C(CP(=O)(OCC)OCC)C1CCC2(C(=O)O)CCC3(C)C(CCC4C5(C)CCC(OC(=O)CC(C)(C)C(=O)O)C(C)(C)C5CCC43C)C12 (stereo not shown) [Compound 14a],> 68,–,–,–
C=C(CP(=O)(OCC)OCC)C1CCC2(C(=O)O)CCC3(C)C(CCC4C5(C)CCC(OC(=O)CC(C)(C)CC(=O)O)C(C)(C)C5CCC43C)C12 (stereo not shown) [Compound 14b],> 68,0.9 ± 0.12,>75,–
C=C(CP(=O)(OCC)OCC)C1CCC2(C(=O)O)CCC3(C)C(CCC4C5(C)CCC(OC(=O)CCC(C)(C)C(=O)O)C(C)(C)C5CCC43C)C12 (stereo not shown) [Compound 14c],> 68,1 ± 0.17,>68,–
"C=C(C)[C@@H]1CC[C@]2(CO)CC[C@]3(C)[C@H](CC[C@@H]4[C@@]5(C)CC[C@H](O)C(C)(C)[C@@H]5CC[C@]43C)[C@@H]12 [betulin, lup-20(29)-ene-3β,28-diol, reference compound]",46 ± 3.01,> 10,–,–
"C=C(C)[C@@H]1CC[C@]2(C(=O)O)CC[C@]3(C)[C@H](CC[C@@H]4[C@@]5(C)CC[C@H](O)C(C)(C)[C@@H]5CC[C@]43C)[C@@H]12 [betulinic acid, 3β-hydroxy-20(29)-lupaene-28-oic acid, reference compound]",5 ± 2.44,> 10,–,EC50 (HIV-1 [3]): 1.6 µM
"C=C(C)[C@@H]1CC[C@]2(C(=O)O)CC[C@]3(C)[C@H](CC[C@@H]4[C@@]5(C)CC[C@H](OC(=O)CC(C)(C)C(=O)O)C(C)(C)[C@@H]5CC[C@]43C)[C@@H]12 [bevirimat, 3-O-(3′,3′-dimethylsuccinyl) betulinic acid, reference compound]",–,–,–,"CC50 at 7 days ([1]; CEM-T4 cells): 29 ± 2.43 µM; IC50 (HIV-1 [2]; Human immunodeficiency virus 1, CEM-T4, 168 h): 0.03 ± 0.009 µM; EC50 (HIV; literature reports): 0.00035 µM"
